Experimental data as given in US10647680B2, “Urea compound, preparation method therefor and medical use thereof” (Ancureall Pharmaceutical (Shanghai) Co., Ltd., priority 2016, dated 2020).

Key:
HCC1954 (HER2/ErbB2 amp) = experiment: In vitro growth inhibition (GI50), HCC1954; type: cell-based; details: Homo sapiens
Source text: Tumor cell line is an effective cell model for studying the inhibition of tumor cell growth or proliferation in vitro. In the present invention, a representative tumor cell line was selected to determine the cell growth inhibition activity of the present compound. All cell lines used were from ATCC, DSMZ, and the Cell Bank of the Chinese Academy of Sciences. Cell culture conditions and methods were in accordance with the requirements of each cell line. Cells were subcultured in vitro for no more than 3 passages each time, and as required, single-clone purification and identification of cell lines could be carried out.
The cell culture media used were RPMI1640 (Gibco), MEM (Gibco), McCOY'S5A (Gibco), and IMDM (Gibco). The complete medium was prepared by supplement with 5˜20% fetal calf serum (Gibco), 1% double-antibiotics (10000 units/mL penicillin and 10000 units/mL), 2 mM glutamine or 1 mM sodium pyruvate, respectively.
Human gastric cancer cell line NCI-N87 (HER2/ErbB2 amp, ATCC), human breast cancer cell line HCC1954 (HER2/ErbB2 amp, ATCC) and ZR-75-30 (HER2/ErbB2 amp, ATCC), human adenocarcinoma cell line AU565 (HER2/ErbB2 amp, ATCC), human lung squamous cell carcinoma cell line NCI-H2170 (HER2/ErbB2 amp, ATCC), human bronchioalveolar adenocarcinoma cell line NCI-H1781 (HER2/ErbB2 Ins G776V,C mutant type, ATCC) were cultured with a 1×RPMI1640 complete medium (10% FBS), respectively. Human lung adenocarcinoma cell line Calu-3 (HER2/ErbB2 amp, ATCC) was cultured with 1×MEM, 10% FBS, 1% double antibody, 1% NEAA (Gibco), 2 mM glutamine and 1 mM sodium pyruvate. The human breast cancer cell line SK-BR-3 (HER2/ErbB2 amp, ATCC) was cultured with a McCOY'S5A complete medium (10% FBS).
Adherent cells were digested with 0.25% pancreatin-EDTA (Gibco). The suspension cells were collected by centrifugation. The supernatant was discarded and the cell pellet was resuspended and counted. Different cell concentrations (5˜10×10^4 cells/mL) were prepared according to the growth cycle of each cell line and then seeded on a 96-well plate (Corning), 100 μL/well. The cells were incubated overnight at 37° C., 5% CO2. The compounds were added to the cells on the second day with 2 wells in parallel. The final concentration of organic solvent shall not exceed 1%. The cells were continually incubated for 3 to 5 days, and then subjected to MTT assay.
The compound of the present invention and the control compound were dissolved in DMSO (Sigma) respectively, with the purity of more than 98%. The compound was stored in a concentration of 10 mM at −20° C. and diluted to 2- or 10-fold series prior to use.
Dojindo CCK8 reagent kit was used as MTT assay. THERMO […] FC meter was used as microplate reader.
For adherent cells, culture medium was removed and immediately replaced with the fresh prepared medium which contains 10% CCK8 reagent (100 μL/well). For the suspension cells, CCK8 was directly added to 10% of the final concentration. The cells were continually incubated for 1˜4 h. When a dark yellow color could be observed in the solvent control wells, the absorbance value at OD450 nm was measured and the cell growth rate was calculated according to the following formula: Cell Growth Rate (%)=100*(T−T0)/(C−T0) T=optical density of drug treatment cell well—optical density of blank control well; T0=optical density of cell well before drug treatment—optical density of blank control well; C=optical density of cell well of solvent control group—optical density of blank control well. The concentration value of 50% inhibition of cell growth (GI50) was calculated according to the drug concentration and cell growth rate curve. The experiment was independently repeated 1˜3 times, and subject to biological statistical analysis. 4. Experimental Results
Tumor cell growth inhibition test was performed by selecting representative compounds (compounds 4, 11, 12, 16, 27, 68, 71, 77, 79, 89 and 116 of the present invention). […]

[1] = system: Kasumi-1 (c-Kit N822K mutant type); experiment: In vitro growth inhibition (GI50), Kasumi-1; type: cell-based; details: Homo sapiens, Cell lines of leukemia, read-out: GI 50 Kasumi-1 Kit (N822K)
Summary of the method: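 Cells in RPMI1640 with 10% FBS, seeded at 5–10×10^4 cells/mL, exposed next day to compound at 5,000 nM down to 0.01 nM (2- or 10-fold dilutions, ≤1% solvent) for 3–5 days at 37 °C. CCK8 absorbance at 450 nm, growth rate relative to pre-treatment and solvent controls, GI50 from concentration–growth curve.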

Compound | GI50 (HCC1954 (HER2/ErbB2 amp)) | GI50 [1]
CC(C)(C)c1cc(NC(=O)Nc2ccc(-n3cnc4cc(O)ccc43)cc2)no1 [Compound 4, 1-(5-tert-butyl-isoxazol-3-yl)-3-[4-(5-hydroxy-benzimidazol-1-yl)-phenyl]-urea] | > 2500 nM | 100 to 1000 nM
CC(C)(C)c1cc(NC(=O)Nc2ccc(-n3cnc4cc(OCCO)ccc43)cc2)no1 [Compound 11, 1-(5-tert-butyl-isoxazol-3-yl)-3-{4-[5-(2-hydroxy-ethoxyl)-benzimidazol-1-yl]-phenyl]-urea] | > 2500 nM | > 1000 nM
CC(C)(C)c1cc(NC(=O)Nc2ccc(-n3cnc4cc(OCCN5CCOCC5)ccc43)cc2)no1 [Compound 16, 1-(5-tert-butyl-isoxazol-3-yl)-3-{4-[5-(2-morpholin-4-yl-ethoxyl)-benzimidazol-1-yl]-phenyl}-urea] | > 2500 nM | > 1000 nM
CC(C)(C)c1cc(NC(=O)Nc2ccc(-n3cnc4ccc(OCCN5CCOCC5)cc43)cc2)no1 [Compound 27, 1-(5-tert-butyl-isoxazol-3-yl)-3-{4-[6-(2morpholin-4-yl-ethoxyl)-benzimidazol-1-yl]-phenyl}-urea] | > 2500 nM | > 1000 nM
CC(C)(C)c1cc(NC(=O)Nc2ccc(-n3cnc4ccccc43)cc2)[nH]n1 [Compound 68, 1-(4-benzimidazol-1-yl-phenyl)-3-(5-tert-butyl-2H-pyrazol-3-yl)-urea] | > 2500 nM | > 1000 nM
COc1ccc2c(c1)ncn2-c1ccc(NC(=O)Nc2cc(C(C)(C)C)n[nH]2)cc1 [Compound 71, 1-(5-tert-butyl-2H-pyrazol-3-yl)-3-[4-(5-methoxyl-benzimidazol-1-yl)-phenyl]-urea] | > 2500 nM | > 1000 nM
COCCOc1ccc2c(c1)ncn2-c1ccc(NC(=O)Nc2cc(C(C)(C)C)n[nH]2)cc1 [Compound 77, 1-(5-tert-butyl-2H-pyrazol-3-yl)-3-{4-[5-(2-methoxyl-ethoxyl)-benzimidazol-1-yl]-phenyl}-urea] | > 2500 nM | > 1000 nM
CC(C)(C)c1cc(NC(=O)Nc2ccc(-n3cnc4cc(OCCO)ccc43)cc2)[nH]n1 [Compound 79, 1-(5-tert-butyl-2H-pyrazol-3-yl)-3-{4-[5-(2-hydroxy-ethoxyl)-benzimidazol-1-yl]-phenyl]urea] | > 2500 nM | > 1000 nM
CC(C)(C)c1cc(NC(=O)Nc2ccc(-n3cnc4cc(OCCN5CCOCC5)ccc43)cc2)[nH]n1 [Compound 89, 1-(5-tert-butyl-2H-pyrazol-3-yl)-3-{4-[5-(2-morpholin-4-yl-ethoxyl)-benzimidazol-1-yl]-phenyl}-urea] | > 2500 nM | 100 to 1000 nM
CC(C)(C)c1cc(N)n(C(=O)Nc2ccc(-n3cnc4ccccc43)cc2)n1 [Compound 116, 5-amino-3-tert-butyl-pyrazol-1-carboxylic acid (4-benzimidazol-1-yl-phenyl)-amide] | > 2500 nM | > 1000 nM
